Each structure is given as a SMILES string.

The nature of the data set: Ex vivo fluorescence imaging and biodistribution in ICR mice. As to conditions: 2.5 mg/kg IV, 3 h post-injection. How it is done: To confirm the organ-specific signaling intensities of different Ce6-curcumin derivatives, we measured ex-vivo FLI in different organs of ICR mice after 3 h of intravenous drug administration. The drug interval time of 3 h before light irradiation in PDT for Ce6-curcumin derivatives can be explained by the pharmacokinetics and imaging study of Ce6 provided in Figures S1 and S2. Three hours after IV injection of 2.5 mg/kg of Ce6- hexane-curcumin, Ce6-propane-curcumin, and Ce6-diPEG-curcumin, ex-vivo images were obtained. […] Furthermore, the fluorescence intensity of Ce6-curcumin derivatives was highest in organs with a larger blood supply, including the liver and lungs.
(B) Biodistribution of the three Ce6-curcumin derivatives in the organ lysates after 3 h post-injection. The quantitation of fluorescence signals of Ce6 derivatives has been represented as a bar. Data were represented as mean ± SD from at least three independent experiments and were analyzed by one-way ANOVA with Tukey’s post hoc test: * p < 0.01, compared with vehicle-treated control of the spleen, ^# p < 0.01, compared with vehicle-treated control of the lungs, ^& p < 0.01, compared with vehicle-treated control of the liver.
Biodistribution analysis for Ce6 and Ce6-curcumin derivatives was calculated by measuring tissue fluorescence. […] The fluorescence intensity was normalized to the tissue weight.

In the case of `C=Cc1c(C)c2cc3nc(c(CC(=O)OC)c4[nH]c(cc5nc(cc1[nH]2)C(C)=C5CC)c(C)c4C(=O)NCCCOCCOCCOCCCNC(=O)CCCC(=O)Oc1ccc(/C=C/C(=O)CC(=O)/C=C/c2ccc(O)c(OC)c2)cc1OC)C(CCC(=O)OC)C3C` (stereo not shown) [Ce6-diPEG-curcumin], the “ex vivo fluorescence signal in organs” value is “highest fluorescence”.

For the origin of these results see paper PMC10487708, “Chlorin E6-Curcumin-Mediated Photodynamic Therapy Promotes an Anti-Photoaging Effect in UVB-Irradiated Fibroblasts” (International Journal of Molecular Sciences, 2023).
